Each structure is given as a SMILES string.

This is an account of results in paper PMC9693073, “Two Subgroups within the GH43_36 α-L-Arabinofuranosidase Subfamily Hydrolyze Arabinosyl from Either Mono-or Disubstituted Xylosyl Units in Wheat Arabinoxylan” (International Journal of Molecular Sciences, 2022).

The assay addresses T1, PoABF62 (Penicillium oxalicum, UniProt A0A2R4KZP3).
T1 construct: heterologously produced (fungal host), purified, supplied by Novozymes
In words: HPAEC-PAD of hydrolysis products. Particulars: 10 mM ammonium acetate pH 5.0, 40 °C, 24 h, 100 μg/mL substrate. The class given is biochemical.

T1 sequence (A0A2R4KZP3 31-331): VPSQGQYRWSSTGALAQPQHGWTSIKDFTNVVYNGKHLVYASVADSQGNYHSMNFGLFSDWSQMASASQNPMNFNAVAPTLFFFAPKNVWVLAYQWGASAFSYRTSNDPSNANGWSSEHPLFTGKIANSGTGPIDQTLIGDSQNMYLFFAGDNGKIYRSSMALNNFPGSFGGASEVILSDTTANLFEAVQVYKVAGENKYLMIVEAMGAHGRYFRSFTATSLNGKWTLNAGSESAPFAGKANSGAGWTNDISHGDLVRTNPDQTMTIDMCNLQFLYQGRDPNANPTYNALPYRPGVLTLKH

For `OC[C@@H]1O[C@@H](O[C@H]2[C@H](O[C@@H]3CO[C@@H](O[C@@H]4COC(O)[C@H](O)[C@H]4O)[C@H](O)[C@H]3O)OC[C@@H](O)[C@@H]2O)[C@H](O)[C@H]1O` (stereo partly drawn) [A2XX, 2-α-L-arabinofuranosyl-xylotriose], the “HPAEC-PAD of hydrolysis products” value is “PoABF62 and MgABF51 were highly active on all monosubstituted AXOS”. As for `OC[C@@H]1O[C@@H](O[C@@H]2[C@@H](O)[C@H](O[C@@H]3CO[C@@H](O[C@@H]4COC(O)[C@H](O)[C@H]4O)[C@H](O)[C@H]3O)OC[C@H]2O[C@@H]2OC[C@@H](O)[C@H](O)[C@H]2O)[C@H](O)[C@H]1O` (stereo partly drawn) [XA3XX, 3-α-L-arabinofuranosyl-xylotetraose], the “HPAEC-PAD of hydrolysis products” value (XA2XX/XA3XX mixture) was “PoABF62 and MgABF51 were highly active on all monosubstituted AXOS”.
